Patent US12264339B2, “Compositions and methods involving engineered P27” (THE REGENTS OF THE UNIVERSITY OF CALIFORNIA, priority 2018, dated 2025)

Experiments:
[1] = test system: Rb (771-928), FoxM1 (526-748), histone H1; assay: 32P-ATP kinase assay of protein complexes on substrates (FIG. 1A); assay type: biochemical; conditions: 0.5 μM complex, 20 μM substrate, 250 μM ATP, 30 minutes
Experimental: The phosphorylation activity of Cdk4 in various complexes was tested using different substrates.
The substrates used in the kinase assays were the C-terminal domain of the retinoblastoma protein (Rb (771-928); SEQ ID NO: 62), the transactivation domain of FoxM1 (FoxM1 (526-748); SEQ ID NO: 64), and full-length histone H1 (SEQ ID NO: 65).

[2] = Steady-state kinetic assays, initial rate of phosphorylation vs ATP concentration (FIGS. 1B and 1C); assay type: biochemical; conditions: summary of kinetic results, FIG. 1C

Substance	phosphorylation activity toward substrates [1]	ATP substrate capture [2]
Cdk4-CycD dimeric complex: Cdk4-CycD1 dimeric complex lacking p27; covers complexes (i) and (ii)	high phosphorylation activity specifically for Rb	
engineered p27 with Y74E, Y88E, and Y89E-Cdk4-CycD1 trimeric complex: trimeric complex of p27 Y74E/Y88E/Y89E, Cdk4 and CycD1; covers complexes (vii) and (viii)	greater activity toward FoxM1 and histone 1	enhances ATP substrate capture
